From PubChem BioAssay (NCI)
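Exposure lasted 48 hours, with cells grown in 96-well plates and compounds tested at five concentrations. TGI marks complete inhibition of growth.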

How the values were obtained:
Assay in all cases: DTP human tumour cell line panel, 48 h
ACHN renal = test system: ACHN renal
BT-549 breast = test system: BT-549 breast
COLO 205 colon = test system: COLO 205 colon
HCT-116 colon = test system: HCT-116 colon
HOP-62 NSCLC = test system: HOP-62 NSCLC
LOX IMVI melanoma = test system: LOX IMVI melanoma
M14 melanoma = test system: M14 melanoma
MDA-MB-435 = test system: MDA-MB-435
NCI-H226 lung = test system: NCI-H226 lung
NCI-H522 lung = test system: NCI-H522 lung
OVCAR-8 ovarian = test system: OVCAR-8 ovarian
SF-539 CNS = test system: SF-539 CNS
SK-OV-3 ovarian = test system: SK-OV-3 ovarian
SN12C renal = test system: SN12C renal
SW-620 colon = test system: SW-620 colon
TK-10 renal = test system: TK-10 renal
UACC-62 melanoma = test system: UACC-62 melanoma
OVCAR-4 ovarian = test system: OVCAR-4 ovarian

Measured: TGI

c1ccc(CN2C3C4N(Cc5ccccc5)C2C2N(Cc5ccccc5)C(C(N2Cc2ccccc2)N4Cc2ccccc2)N3Cc2ccccc2)cc1
not listed: OVCAR-4 ovarian
> 100 µM: all other assays above

CN1CC=C(C#CC(C)(C)O)CC1
not listed: NCI-H522 lung | SF-539 CNS
> 37.5 µM: all other assays above

O=C1CC(=O)NC(=NN2C(=O)CSC2c2ccc(Cl)cc2)N1 (stereo unspecified)
60.9 µM: HOP-62 NSCLC
47.6 µM: SN12C renal
not listed: LOX IMVI melanoma
> 100 µM: all other assays above

COC(=O)C1=C(C)NC(CF)=C(C(=O)OC)C1c1cccc2c(=O)c3ccccc3oc12 (stereo unspecified)
22.8 µM: COLO 205 colon
not listed: M14 melanoma
> 100 µM: all other assays above

CC(=O)Nc1ccc2cc(C#N)c(=O)[nH]c2n1
not listed: UACC-62 melanoma
> 100 µM: all other assays above

C=C1[C@@H](OC(C)=O)/C=C/C2C3C(=O)[C@@](C)(OC(C)=O)[C@H]([C@H](OC(C)=O)[C@]4(O)[C@@H](C)C(=O)O[C@H]4[C@H]1Cl)[C@@]23C (stereo partly specified)
not listed: SF-539 CNS
> 100 µM: all other assays above
